# Earlier results as cited in patent US20080089844A1 (priority 2002, published 2008).
# Molecular target: F425G Shaker mutation (Drosophila melanogaster, UniProt P08510, F425G)
# Details: cited from earlier work
# Chain of F425G Shaker mutation (P08510 whole entry F425G, looked up): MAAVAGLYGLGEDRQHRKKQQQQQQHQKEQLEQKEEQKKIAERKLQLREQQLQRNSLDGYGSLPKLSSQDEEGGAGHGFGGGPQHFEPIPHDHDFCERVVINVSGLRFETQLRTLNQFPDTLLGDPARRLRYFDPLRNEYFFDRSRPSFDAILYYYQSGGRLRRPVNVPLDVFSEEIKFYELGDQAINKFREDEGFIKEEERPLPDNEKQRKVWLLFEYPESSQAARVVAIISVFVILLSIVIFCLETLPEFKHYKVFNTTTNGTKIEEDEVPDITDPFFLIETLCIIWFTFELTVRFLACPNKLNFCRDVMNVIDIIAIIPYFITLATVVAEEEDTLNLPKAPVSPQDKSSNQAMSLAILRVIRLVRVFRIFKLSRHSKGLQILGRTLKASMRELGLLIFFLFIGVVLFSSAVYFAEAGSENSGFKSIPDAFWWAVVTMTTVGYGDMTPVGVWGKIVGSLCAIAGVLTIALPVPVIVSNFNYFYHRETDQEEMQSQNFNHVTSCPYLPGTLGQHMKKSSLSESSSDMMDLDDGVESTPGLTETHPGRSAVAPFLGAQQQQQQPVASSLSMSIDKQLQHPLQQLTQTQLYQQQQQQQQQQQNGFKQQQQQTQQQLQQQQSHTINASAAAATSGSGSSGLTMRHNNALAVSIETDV
substance,measurement,value
charybdotoxin [reference compound],effect of F425G Shaker mutation on charybdotoxin affinity,increases charybdotoxin affinity by three orders of magnitude
